The source made the active and inactive calls. No cut-off for these calls is given here.

These results are taken from ChEMBL document CHEMBL5046288, “Design, Synthesis, and Bioevaluation of 2-Aminopteridin-7(8H)-one Derivatives as Novel Potent Adenosine A2A Receptor Antagonists for Cancer Immunotherapy” (J Med Chem, 2022).

In data set [1] the target is T1, Adenosine receptor A2a (Homo sapiens, UniProt P29274). The experiment in a line: Antagonist activity at human A2aR expressed in HEK293 cells assessed as reduction in cAMP production incubated for 60 mins by ultra LANCE cAMP detection assay. Type of data set: functional, cell-based. On the technique in general: Changes in cAMP serve as a functional read-out for many G protein-coupled receptors.
T1 sequence (P29274 whole entry): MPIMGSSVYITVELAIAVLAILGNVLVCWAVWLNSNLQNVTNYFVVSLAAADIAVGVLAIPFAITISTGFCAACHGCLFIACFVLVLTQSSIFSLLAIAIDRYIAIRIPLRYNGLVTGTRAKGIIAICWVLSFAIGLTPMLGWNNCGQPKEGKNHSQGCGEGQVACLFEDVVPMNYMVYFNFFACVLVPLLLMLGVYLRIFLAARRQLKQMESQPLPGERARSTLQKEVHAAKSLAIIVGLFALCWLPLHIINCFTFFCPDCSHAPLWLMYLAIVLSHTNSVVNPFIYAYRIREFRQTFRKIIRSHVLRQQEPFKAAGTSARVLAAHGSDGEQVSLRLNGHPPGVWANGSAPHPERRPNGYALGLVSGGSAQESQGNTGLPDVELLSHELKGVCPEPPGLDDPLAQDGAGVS

A short description of data set [2]: Metabolic stability in mouse liver microsomes assessed as half life at […] measured up to 60 mins in presence of NADPH by HPLC-MS/MS analysis. The data set is classed as ADME, Microsome. For orientation: Microsomes from liver hold many membrane-bound enzymes, among them those of drug oxidation.
In data set [3] the target is T1, Adenosine receptor A2a. The data set can be described thus: Antagonist activity at human A2aR expressed in HEK293 cells assessed as reduction in NECA-induced cAMP production incubated for 20 mins in presence of 20 nM NECA by GloSensor cAMP detection assay. The data set is classed as functional, cell-based.
Data set [4] relates to Jurkat. The data set can be described thus: Upregulation of NECA-suppressed IL-2 mRNA level in Ion/PMA-activated human Jurkat T cells at 10 uM by Q-PCR analysis. The data set is classed as functional, cell-based.
The species entered for data set [5] is Homo sapiens. The experiment in a line: Selectivity ratio of IC50 for human A1R to IC50 for human A2aR.
Data set [6] has as its system HCT-116. The data set can be described thus: Cytotoxicity against human HCT-116 cells co-cultured with Ion/PMA-activated human Jurkat T cells assessed as reversal of NECA-induced suppression of cytotoxic function of Jurkat T cell by measuring survival rate at E:T ratio of 6:1 at 10 uM measured after 48 hrs by crystal violet staining based colony assay. Type of data set: functional.

Data set [7] has as its target T1, Adenosine receptor A2a. The data set can be described thus: Antagonist activity at human A2aR expressed in HEK293 cells assessed as reduction in NECA-induced cAMP production incubated for 20 mins in presence of 1 uM NECA by ultra LANCE cAMP detection assay. The data set is classed as functional, cell-based.
The species named for data set [8] is Homo sapiens. The data set can be described thus: Selectivity ratio of IC50 for human A3R to IC50 for human A2aR.
The subject of data set [9] is HCT-116. The experiment in a line: Cytotoxicity against human HCT116 cells assessed as reduction in cell viability incubated for 24 hrs by MTS assay. Particulars: hct-116, 24 h. The data set is classed as toxicity, cell-based. In general terms: Tetrazolium dyes change colour on reduction, which living cells bring about.
Data set [10] addresses T1, Adenosine receptor A2a. The experiment in a line: Antagonist activity at human A2aR expressed in HEK293 cells assessed as reduction in NECA-induced cAMP production incubated for 20 mins in presence of 40 nM NECA by ultra LANCE cAMP detection assay. Type of data set: functional, cell-based.
The nature of data set [11]: Upregulation of NECA-suppressed IL-2 protein level in Ion/PMA-activated human Jurkat T cells at 10 uM by Western blotting analysis. Type of data set: functional.
The subject of data set [12] is MC-38. The data set can be described thus: Cytotoxicity against mouse MC38 cells assessed as reduction in cell viability incubated for 24 hrs by MTS assay. Type of data set: toxicity, cell-based. Particulars: mc-38, 24 h.
The species entered for data set [13] is Homo sapiens. The experiment in a line: Selectivity ratio of IC50 for human A2BR to IC50 for human A2aR.

A word on the IC50: it is the midpoint of a concentration-inhibition curve. As to `COc1ccc(N2CC3CCC(C2)N3CCn2c(=O)cnc3c(-c4ccc(C)o4)nc(N)nc32)cc1`, the IC50 in [1] was 0.555 µM.

Turning to `Cc1ccc(-c2nc(N)nc3c2n(C)c(=O)n3Cc2ccccc2)o1`, the IC50 in data set [1] worked out at 2.83 µM.

For the compound `Cc1ccc(-c2nc(N)nc3c2ncc(=O)n3CCN2CCN(c3ccc(OC(F)(F)F)cc3)CC2)o1`, the IC50 in data set [1] turned out to be 0.12 µM.

As to `Cc1ccc(-c2nc(N)nc3c2ncc(=O)n3CCN2CCN(c3ccccc3F)CC2)o1`, in data set [1], the IC50 is 0.0117 µM.

As for `Cc1ccc(-c2nc(N)nc3c2CCN(Cc2ccccc2)C3)o1`, in data set [1], the IC50 was above 10 µM.

On to `COc1ccc(Cn2c(=O)cnc3c(-c4ccc(C)o4)nc(N)nc32)cc1`, for which, in [1], the IC50 is above 10 µM.

For the compound `Cc1ccc(-c2nc(N)nc3c2ncc(=O)n3Cc2ccco2)o1`, the IC50 in [1] is 2.17 µM.

As for `COc1cccc(Cn2c(=O)cnc3c(-c4ccc(C)o4)nc(N)nc32)c1`, the IC50 in data set [1] was determined as 0.476 µM.

In the case of `COc1ccc(N2CCC(N(C)CCn3c(=O)cnc4c(-c5ccc(C)o5)nc(N)nc43)C2)cc1` (centres undefined), in data set [1], the IC50 is above 10 µM.

Regarding `Cc1ccc(-c2nc(N)nc3c2ncc(=O)n3CCN2CCN(c3ccc(OC(F)F)cc3F)CC2)o1`, the 50% inhibitory concentration (IC50) in data set [1] is 0.021 µM.

On to `COCCOc1ccc(N2CCN(CCn3c(=O)cnc4c(-c5ccc(C)o5)nc(N)nc43)CC2)cc1`, for which the IC50 in [1] came out at 0.0238 µM.

For `COc1ccc(N2CCN(CCn3c(=O)cnc4c(-c5ccc(C)o5)nc(N)nc43)CC2)cn1`, the IC50 in [1] stood at 0.0295 µM.

Turning to `Cc1ccc(-c2nc(N)nc3c2ncc(=O)n3CCN2CCN(C3CCCC3)CC2)o1`, the IC50 in [1] is above 10 µM.

As for `Cc1ccc(-c2nc(N)nc3c2ncc(=O)n3CC2CCCCC2)o1`, the IC50 in data set [1] was found to be 1.88 µM.

As a reminder, the half-life is the time in which the quantity being followed falls by half. For the compound `COc1ccc(N2CCN(CCn3c(=O)cnc4c(-c5ccc(C)o5)nc(N)nc43)CC2)c(F)c1`, in data set [1], the IC50 amounted to 0.0049 µM. Also, the half-life in data set [2] stood at 5.1 min.

As for `Cc1ccc(-c2nc(N)nc3c2ncc(=O)n3CCN2CCN(C)CC2)o1`, the IC50 in data set [1] is above 10 µM.

Regarding `Cc1ccc(-c2nc(N)nc3c2ncc(=O)n3CCN2CCN(c3ccc(C(F)(F)F)cc3)CC2)o1`, the IC50 in data set [1] is 0.176 µM.

In the case of `Cc1ccc(-c2nc(N)nc3c2ncc(=O)n3CCN2CCN(c3ccc(OC(F)F)cc3)CC2)o1`, the IC50 in data set [1] is 0.0637 µM.

For `Cc1ccc(-c2nc(N)nc3c2ncc(=O)n3CC2CC2)o1`, the IC50 in data set [1] was found to be 1.01 µM.

Take `COc1ccc(N(C)C2CN(CCn3c(=O)cnc4c(-c5ccc(C)o5)nc(N)nc43)C2)cc1`: the IC50 in data set [1] is above 10 µM.

Regarding `COc1ccc(N2C[C@@H]3C[C@H]2CN3CCn2c(=O)cnc3c(-c4ccc(C)o4)nc(N)nc32)cc1`, the IC50 in [1] is above 10 µM.

As for `Cc1ccc(-c2nc(N)nc3c2ncc(=O)n3CCN2CCN(c3ccccc3OC(F)(F)F)CC2)o1`, the IC50 in [1] is above 10 µM.

Consider `COc1ccc(N2CCN(CCn3c(=O)cnc4c(-c5ccc(C)o5)nc(N)nc43)[C@@H](C)C2)c(F)c1`, for which the IC50 in data set [3] was 0.0066 µM; in [7], 0.18 µM; in [10], 0.0083 µM; in data set [1], 0.0083 µM. Also, the result in data set [4] was inactive. The Ratio IC50 in [5], in [8] and in [13] was above 1000 throughout. In addition, the figures for the Activity in data set [6], in [9] and in data set [12] were 48.6%, “Non-Toxic” and “Non-Toxic”, respectively. For the same compound, in data set [11], the “fold change (FC)” value came out at 3.77. Further, the half-life in data set [2] stood at 38.5 min.

Take `COc1ccc(N2CCN(CCn3c(=O)cnc4c(-c5ccc(C)o5)nc(N)nc43)C[C@@H]2C)cc1`: the IC50 in data set [1] stood at 0.224 µM.

For `COc1cnc(N2CCN(CCn3c(=O)cnc4c(-c5ccc(C)o5)nc(N)nc43)CC2)c(F)c1`, the IC50 in data set [1] was found to be 0.0055 µM.

As for `Cc1ccc(-c2nc(N)nc3c2ncc(=O)n3CCN2CCC(c3ccccc3)CC2)o1`, the IC50 in [1] turned out to be 0.388 µM.

For the compound `Cc1ccc(-c2nc(N)nc3c2ncc(=O)n3CCCCc2ccccc2)o1`, the IC50 in data set [1] turned out to be 0.98 µM.

Turning to `Cc1ccc(-c2nc(N)nc3c2ncc(=O)n3CCN2CCN(c3ccc(F)cc3F)CC2)o1`, the IC50 in [1] worked out at 0.0085 µM.

As to `Cc1ccc(-c2nc(N)nc3c2ncc(=O)n3CCN2CCN(c3cccc(F)c3)CC2)o1`, the IC50 in [1] stood at 0.0575 µM.

With `COc1ccc(N2CCN(CCn3c(=O)cnc4c(-c5ccc(C)o5)nc(N)nc43)C[C@H]2C)cc1`, the half-maximal inhibitory concentration (IC50) in data set [1] amounted to 0.0375 µM.

In the case of `Cc1ccc(-c2nc(N)nc3c2ncc(=O)n3CC2CCN(c3ccccc3)CC2)o1`, the IC50 in [1] was above 10 µM.

For `COc1ccc(N2C[C@H](C)N(CCn3c(=O)cnc4c(-c5ccc(C)o5)nc(N)nc43)C[C@H]2C)cc1`, in data set [1], the IC50 was found to be 2.02 µM.

As for `COc1ccc(N2CCCN(CCn3c(=O)cnc4c(-c5ccc(C)o5)nc(N)nc43)CC2)cc1`, the IC50 in [1] is 0.716 µM.

Consider `COc1ccc(N(C)C2CCN(CCn3c(=O)cnc4c(-c5ccc(C)o5)nc(N)nc43)C2)cc1` (centres undefined), for which the IC50 in data set [1] was above 10 µM.

Consider `Cc1ccc(-c2nc(N)nc3c2NC(=O)CN3Cc2ccccc2)o1`, for which the IC50 in data set [1] is above 10 µM.

For the compound `Cc1ccc(-c2nc(N)nc3c2ncc(=O)n3Cc2cccc(C(F)(F)F)c2)o1`, the IC50 in data set [1] was above 10 µM.

For the compound `Cc1ccc(-c2nc(N)nc3c2ncc(=O)n3CCN2CCN(c3ccc(F)cc3Cl)CC2)o1`, the IC50 in data set [1] turned out to be 0.0865 µM.

Turning to `COCCOc1ccc(N2CCN(CCn3c(=O)cnc4c(-c5ccc(C)o5)nc(N)nc43)CC2)c(F)c1F`, the IC50 in data set [1] is 0.0093 µM.

As for `Cc1ccc(-c2nc(N)nc3c2ncc(=O)n3CCCc2ccccc2)o1`, in data set [1], the IC50 came out at 0.712 µM.

As for `Cc1ccc(-c2nc(N)nc3c2ncc(=O)n3CCN2CCN(c3cccc(OC(F)(F)F)c3)CC2)o1`, in data set [1], the IC50 was above 10 µM.

`COc1ccccc1N1CCN(CCn2c(=O)cnc3c(-c4ccc(C)o4)nc(N)nc32)CC1`: the IC50 in data set [1] came out at 3.81 µM.

For the compound `Cc1ccc(-c2nc(N)nc3c2ncc(=O)n3CCN2CCN(c3ccc(Oc4ccccc4)cc3)CC2)o1`, the IC50 in data set [1] was found to be 0.605 µM.

With `Cc1ccc(-c2nc(N)nc3c2ncc(=O)n3CCN2CCN(c3ccc(F)cc3)CC2)o1`, the IC50 in [1] is 0.0588 µM.

For the compound `Cc1ccc(-c2nc(N)nc3c2ncc(=O)n3Cc2ccccc2)o1`, the half-inhibitory concentration (IC50) in data set [1] was determined as 0.482 µM.

Regarding `COc1ccc(N2CCN(CCn3c(=O)cnc4c(-c5ccc(C)o5)nc(N)nc43)CC2)nc1`, the IC50 in data set [1] stood at 0.213 µM.

For the compound `Cc1ccc(-c2nc(N)nc3c2[nH]c(=O)n3Cc2ccccc2)o1`, the IC50 in [1] came to 1.03 µM.
